Data reported in patent publication US20120328526A1, “Modulation of Nad+ Activity in Neuropathophysiological Conditions and Uses Thereof” (University of Maryland, Baltimore, priority 2011, published 2012).

Test system: synaptosomes
Test: NAD+ uptake by isolated synaptosomes (synaptosomal NAD(H) levels)
Design: species or system mouse

Row | Molecule | increase of synaptosomal NAD(H) levels compared to control samples (synaptosomes incubated with 10 mM NAD+) | uptake of NAD+ by synaptosomes (purinergic receptor P2X(7)-gated channels inhibitor)
1 | NC(=O)c1ccc[n+]([C@@H]2O[C@H](COP(=O)([O-])OP(=O)(O)OC[C@H]3O[C@@H](n4cnc5c(N)ncnc54)[C@H](O)[C@@H]3O)[C@@H](O)[C@H]2O)c1 [NAD^+, nicotinamide adenine dinucleotide] | 2 fold | –
2 | brilliant blue | – | blocked
